# Experimental data: patent US8410020B2, “Fungicidal composition comprising a pyridylethylbenzamide derivative and a compound capable of inhibiting the methionine biosynthesis” (Bayer Cropscience AG, priority 2004, dated 2013)
# How the values were obtained:
# Assay type in all cases: in vivo
# [1] = tested on: Erysiphe graminis f. sp. hordei; assay: Efficacy against Erysiphe graminis f. sp. hordei on barley plants (preventive spray, 24 h before contamination); conditions: dose 500 g/ha, grading 7 to 14 days after contamination
# Description: (§1) The active ingredients tested are prepared by potter homogenisation in a mixture of acetone/tween/water. This suspension is then diluted with water to obtain the desired active material concentration.
# Barley plants (Express variety) in starter cups, sown on 50/50 peat soil-pozzolana substrate and grown at 12° C., are treated at the 1-leaf stage (10 cm tall) by spraying with the aqueous suspension described above.
# (§2) Plants, used as controls, are treated with an aqueous solution not containing the active material.
# After 24 hours, the plants are contaminated by dusting them with Erysiphe graminis f. sp. hordei spores, the dusting being carried out using diseased plants.
# (§3) Grading is carried out 7 to 14 days after the contamination, in comparison with the control plants.
# [2] = tested on: Botrytis cinerea; assay: Efficacy against Botrytis cinerea on gherkin plants (preventive spray, 24 h before contamination); conditions: grading 5 to 7 days after contamination
# Description: The formulated (concentrated suspension) compounds are diluted with water to obtain the desired active material concentration Gherkin plants (Petit vert de Paris variety) in starter cups, sown on a 50/50 peat soil-pozzolana substrate and grown at 18-20° C., are treated at the cotyledon Z11 stage by spraying with the aqueous suspension described above. Plants, used as controls, are treated with an aqueous solution not containing the active material.
# After 24 hours, the plants are contaminated by depositing drops of an aqueous suspension of Botrytis cinerea spores (150,000 spores per ml) on upper surface of the leaves. The spores are collected from a 15-day-old culture and are suspended in a nutrient solution composed of: • 20 g/L of gelatine • 50 g/L of cane sugar • 2 g/L of NH4NO3 • 1 g/L of KH2PO4
# The contaminated gherkin plants are settled for 5/7 days in a climatic room at 15-11° C. (day/night) and at 80% relative humidity. Grading (% of efficacy) is carried out 5 to 7 days after the contamination, in comparison with the control plants.
# [3] = tested on: Erysiphe graminis f. sp. tritici; assay: Efficacy against Erysiphe graminis on wheat plants (preventive spray, 24 h before contamination); conditions: grading 7 to 14 days after contamination
# Description: as §1
# Wheat plants (Audace variety) in starter cups, sown on 50/50 peat soil-pozzolana substrate and grown at 12° C., are treated at the 1-leaf stage (10 cm tall) by spraying with the aqueous suspension described above.
# as §2
# After 24 hours, the plants are contaminated by dusting them with Erysiphe graminis f. sp. tritici spores, the dusting being carried out using diseased plants.
# as §3
smiles,measurement,setting,value
"O=C(NCCc1ncc(C(F)(F)F)cc1Cl)c1ccccc1C(F)(F)F [Compound 1, N-{2-[3-chloro-5-(trifluoromethyl)-2-pyridinyl]ethyl}-2-trifluoromethylbenzamide]",% Efficacy,[1],40%
same,% Efficacy,[2]; dose 37 ppm,45%
same,% Efficacy,[3]; dose 500 g/ha,35%
"Cc1cc(C2CC2)nc(Nc2ccccc2)n1 [Cyprodinil, cyprodinil]",% Efficacy,[3]; dose 31.2 g/ha,0%
"CC#Cc1cc(C)nc(Nc2ccccc2)n1 [Mepanipyrim, mepanipyrim]",% Efficacy,[1],0%
"Cc1cc(C)nc(Nc2ccccc2)n1 [Pyrimethanil, pyrimethanil]",% Efficacy,[2]; dose 12.3 ppm,90%
